Source: patent US10934286B2, “Heterocyclic sulfones as ROR gamma modulators” (BRISTOL-MYERS SQUIBB COMPANY, priority 2016, dated 2021)
Where a name gives a salt, the structure may show the parent alone.

Biological target: T1, RORγ receptor (Homo sapiens, UniProt P51449)
T1 construct: Jurkat pEx/Gal/hRORγ CLBD/HYG pG51uc/blast; expressed in transfected cells
T1 sequence (P51449 269-508 limits assumed): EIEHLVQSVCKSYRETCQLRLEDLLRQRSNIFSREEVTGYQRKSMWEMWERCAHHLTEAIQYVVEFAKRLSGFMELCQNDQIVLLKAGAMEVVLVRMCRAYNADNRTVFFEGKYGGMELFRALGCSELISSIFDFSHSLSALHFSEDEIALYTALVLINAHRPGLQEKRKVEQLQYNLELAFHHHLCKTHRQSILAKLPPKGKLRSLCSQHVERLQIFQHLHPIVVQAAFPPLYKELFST
Assay: General RORγ Gal4 reporter assay (inverse agonist activity, inhibition of luminescence)
Format: cell-based
Settings: Gal4-luciferase reporter in Jurkat cells stably over-expressing hRORγ LBD; overnight incubation; 40 μM to 0.67 nM
Procedure: General RORγ Gal4 Reporter Assay Inverse agonist activity of potential ligands to RORγ was measured by inhibition of luminescence in a Gal4-luciferase reporter assay in Jurkat cells.
The following day, cells were lysed with 10 μL of Steady-Glo Luciferase Assay System (Promega Cat. No. EZ550), and analyzed immediately. IC50 values were determined.

SMILES	IC50 [nM]
[2H]C([2H])([2H])N1C(=O)[C@H](F)C[C@H]1C(=O)N1CCC2(S(=O)(=O)c3ccc(F)cc3)c3ncc(C(F)(C(F)(F)F)C(F)(F)F)cc3CCC12 (stereo partly drawn) [Example 2]	69
O=C([C@@H]1CCC(=O)N1Cc1ccc(F)cc1)N1CCC2(S(=O)(=O)c3ccc(F)cc3)c3ncc(C(F)(C(F)(F)F)C(F)(F)F)cc3CCC12 (stereo partly drawn) [Example 3]	61
O=C(O)[C@H]1CC[C@H](C(=O)N2CCC3(S(=O)(=O)c4ccc(F)cc4)c4ncc(C(F)(C(F)(F)F)C(F)(F)F)cc4CCC23)CC1 (stereo partly drawn) [Example 4]	161
NC(=O)[C@H]1CC[C@H](C(=O)N2CCC3(S(=O)(=O)c4ccc(F)cc4)c4ncc(C(F)(C(F)(F)F)C(F)(F)F)cc4CCC23)CC1 (stereo partly drawn) [Example 5]	78
O=C(O)C12CCC(C(=O)N3CCC4(S(=O)(=O)c5ccc(F)cc5)c5ncc(C(F)(C(F)(F)F)C(F)(F)F)cc5CCC34)(CC1)CC2 (stereo not drawn) [Example 6]	54
NC(=O)C12CCC(C(=O)N3CCC4(S(=O)(=O)c5ccc(F)cc5)c5ncc(C(F)(C(F)(F)F)C(F)(F)F)cc5CCC34)(CC1)CC2 (stereo not drawn) [Example 7]	83
O=C(C1CCS(=O)(=O)CC1)N1CCC2(S(=O)(=O)c3ccc(F)cc3)c3ncc(C(F)(C(F)(F)F)C(F)(F)F)cc3CCC12 (stereo not drawn) [Example 8]	91
O=C(O)C1CC2(C1)CC(C(=O)N1CCC3(S(=O)(=O)c4ccc(F)cc4)c4ncc(C(F)(C(F)(F)F)C(F)(F)F)cc4CCC13)C2 (stereo not drawn) [Example 9]	87
O=C(CC1(O)CCS(=O)(=O)C1)N1CCC2(S(=O)(=O)c3ccc(F)cc3)c3ccc(C(F)(C(F)(F)F)C(F)(F)F)nc3CCC12 (stereo not drawn) [Example 10]	33
O=C(CC1(O)CCS(=O)(=O)C1)N1CCC2(S(=O)(=O)c3ccccc3)c3ccc(C(F)(C(F)(F)F)C(F)(F)F)nc3CCC12 (stereo not drawn) [Example 11]	21
O=C(C1CCS(=O)(=O)CC1)N1CCC2(S(=O)(=O)c3ccccc3)c3ccc(C(F)(C(F)(F)F)C(F)(F)F)nc3CCC12 (stereo not drawn) [Example 12]	9
N#CCCN1C(=O)CC[C@H]1C(=O)N1CCC2(S(=O)(=O)c3cccc(F)c3)c3cnc(C(F)(C(F)(F)F)C(F)(F)F)cc3CCC12 (stereo partly drawn) [Example 14]	4
O=C(C1CCS(=O)(=O)CC1)N1CCC2(S(=O)(=O)c3cccc(F)c3)c3cnc(C(F)(C(F)(F)F)C(F)(F)F)cc3CCC12 (stereo not drawn) [Example 15]	8
O=C(O)C12CCC(C(=O)N3CCC4(S(=O)(=O)c5ccccc5)c5ccc(C(F)(C(F)(F)F)C(F)(F)F)nc5CCC34)(CC1)CC2 (stereo not drawn) [Example 16]	6
CC(C)(O)C(=O)N1CCC2(S(=O)(=O)c3ccccc3)c3ccc(C(F)(C(F)(F)F)C(F)(F)F)nc3CCC12 (stereo not drawn) [Example 17]	45
CC(C)(O)CC(=O)N1CCC2(S(=O)(=O)c3ccccc3)c3ccc(C(F)(C(F)(F)F)C(F)(F)F)nc3CCC12 (stereo not drawn) [Example 18]	30
N#CCCN1C(=O)CC[C@H]1C(=O)N1CCC2(S(=O)(=O)c3ccccc3)c3ccc(C(F)(C(F)(F)F)C(F)(F)F)nc3CCC12 (stereo partly drawn) [Example 19]	13

Results, then the compound that gave them:

IC50 [nM]	SMILES
318	C[C@H]1C[C@H](C(=O)O)CC[C@H]1C(=O)N1CCC2(S(=O)(=O)c3ccc(F)cc3)c3ncc(C(F)(C(F)(F)F)C(F)(F)F)cc3CCC12 (single isomer, unassigned) [Example 23, trifluoroacetate]
62	O=C1N[C@H](C(=O)N2CCC3(S(=O)(=O)c4cccc(F)c4)c4ccc(C(F)(C(F)(F)F)C(F)(F)F)nc4CCC23)[C@H]2C[C@@H]12 (single isomer, unassigned) [Example 34, trifluoroacetate]
110	O=C([C@@H]1C[C@@H](F)C(=O)N1CCO)N1CCC2(S(=O)(=O)c3ccc(F)cc3)c3ncc(C(F)(C(F)(F)F)C(F)(F)F)cc3CCC12 (single isomer, unassigned) [Example 36]
4250	N#CCCN1C(=O)CC[C@H]1C(=O)N1CCC2(S(=O)(=O)c3ccc(F)cc3)c3cnc(OCc4ccccc4)cc3CCC12 (single isomer, unassigned) [Example 38]
15	N#CCCN1C(=O)CC[C@H]1C(=O)N1CCC2(S(=O)(=O)c3ccc(F)cc3)c3ccc(OCc4c(Cl)cccc4Cl)nc3CCC12 (single isomer, unassigned) [Example 39]
43	N#CCCN1C(=O)CC[C@H]1C(=O)N1CCC2(S(=O)(=O)c3ccc(F)cc3)c3ccc(C(F)(C(F)(F)F)C(F)(F)F)nc3CCC12 (single isomer, unassigned) [Example 42]
31	CC(C)(O)CN1C(=O)[C@H](F)C[C@H]1C(=O)N1CCC2(S(=O)(=O)c3ccc(F)cc3)c3ccc(C(F)(C(F)(F)F)C(F)(F)F)nc3CCC12 (single isomer, unassigned) [Example 43]
168	CC(C)(O)CN1C(=O)[C@H](F)C[C@@H]1C(=O)N1CCC2(S(=O)(=O)c3ccc(F)cc3)c3ccc(C(F)(C(F)(F)F)C(F)(F)F)nc3CCC12 (single isomer, unassigned) [Example 44]
22	CC(C)(O)CN1C(=O)[C@@H]2C[C@@H]2[C@H]1C(=O)N1CCC2(S(=O)(=O)c3cccc(F)c3)c3cnc(C(F)(C(F)(F)F)C(F)(F)F)cc3CCC12 (single isomer, unassigned) [Example 51]
16	CC(C)(O)CN1C(=O)CCN1C(=O)N1CCC2(S(=O)(=O)c3ccc(F)cc3)c3ccc(C(F)(C(F)(F)F)C(F)(F)F)nc3CCC12 (single isomer, unassigned) [Example 54, 1-(9b-((4-fluorophenyl)sulfonyl)-7-(perfluoropropan-2-yl)-2,3,3a,4,5,9b-hexahydro-1H-pyrrolo[3,2-f]quinoline-3-carbonyl)-2-(2-hydroxy-2-methylpropyl)pyrazolidin-3-one]
594	C[C@H]1C[C@H](C(N)=O)CC[C@H]1C(=O)N1CCC2(S(=O)(=O)c3ccc(F)cc3)c3ncc(C(F)(C(F)(F)F)C(F)(F)F)cc3CCC12 (single isomer, unassigned) [Example 59]
802	O=C(N1CCC2(S(=O)(=O)c3ccccc3)c3ccc(OCc4c(Cl)cccc4Cl)nc3CCC12)C(F)(F)F (single isomer, unassigned) [Example 61]
2440	O=C(N1CCC2(S(=O)(=O)c3ccccc3)c3ccc(OCc4c(Cl)cccc4Cl)nc3CCC12)C(F)(F)F (single isomer, unassigned) [Example 62]
11	N#CCCN1C(=O)CC[C@H]1C(=O)N1CCC2(S(=O)(=O)c3cccc(F)c3)c3ccc(C(F)(C(F)(F)F)C(F)(F)F)nc3CCC12 (stereo partly drawn) [Example 21]
9	O=C(C1CCS(=O)(=O)CC1)N1CCC2(S(=O)(=O)c3cccc(F)c3)c3ccc(C(F)(C(F)(F)F)C(F)(F)F)nc3CCC12 (stereo not drawn) [Example 22]
15	O=C(O)[C@H]1CC[C@H](C(=O)N2CCC3(S(=O)(=O)c4cccc(F)c4)c4ccc(C(F)(C(F)(F)F)C(F)(F)F)nc4CCC23)CC1 (stereo partly drawn) [Example 24]
12	C[C@H]1C[C@H](C(=O)O)CC[C@H]1C(=O)N1CCC2(S(=O)(=O)c3cccc(F)c3)c3ccc(C(F)(C(F)(F)F)C(F)(F)F)nc3CCC12 (stereo partly drawn) [Example 25]
13	O=C(O)[C@H]1CC[C@H](C(=O)N2CCC3(S(=O)(=O)c4cccc(F)c4)c4cnc(C(F)(C(F)(F)F)C(F)(F)F)cc4CCC23)CC1 (stereo partly drawn) [Example 26]
21	C[C@H]1C[C@H](C(=O)O)CC[C@H]1C(=O)N1CCC2(S(=O)(=O)c3cccc(F)c3)c3cnc(C(F)(C(F)(F)F)C(F)(F)F)cc3CCC12 (stereo partly drawn) [Example 27]
